Test results published in US9301999B2 (priority 2009, dated 2016).
Values joined by “and” are separate entries in the source; they are usually repeats but may differ in a detail not shown here. Identical values can stand only once. Where no end group is shown, it is not given here.

How the values were obtained:
[1] = test system: MC/9 mast cells; assay type: cell-based, murine; design: MCD10: concentration of peptide necessary to induce degranulation of 10% of mast cells: unit not given here; conditions: for EC50: read-out: MCD50: concentration of peptide necessary to induce degranulation of 50% of mast cells
[2] = test system: anti-WNV IgG; assay type: in vivo, Female BALB/c mice; conditions: nasal, days 0, 7 and 21, WNV antigen 1 μg + 0.25 or 1.25 nmoles peptide; for Anti-WNV IgG titers in sera on day 28, versus antigen alone: ANOVA p<0.05; for anti-WNV IgG titers, difference versus mice that received MP7: serum day 28
[3] = test system: anti-rPA IgG; design: species or system female C3H mice; conditions: mouse, in vivo

Substance	MCD10: concentration of peptide necessary to induce degranulation of 10% of mast cells [1]	% Mast Cell Degranulation [1]	other results
I N L K A F A A L A K K I L (INLKAFAALAKKIL) [MP-6F]	58.40		
I N L K A I A A L A K K I L (INLKAIAALAKKIL) [MP-6I]	61.14		
I N L K A L A A L A K A L L [MP7-Ac-NH2]		54.46% and 47.52% and 29.89%	
I N L K A L A A L A K A L L [MP7-Ac]		0.31%	
I N L K A L A A L A K E I L (INLKALAALAKEIL) [MP-12E]	40.32		
I N L K A L A A L A K F I L [MP-12F-Ac-NH2]		87.65% and 83.36% and 67.41%	
I N L K A L A A L A K F I L [MP-12F-Ac]		2.75%	
I N L K A L A A L A K F I L [MP-12F-NH2]		95.24% and 87.57% and 70.01%	
I N L K A L A A L A K F I L [MP-12F-OH]		38.07%	
I N L K A L A A L A K G I L (INLKALAALAKGIL) [MP-12G]	68.76		
I N L K A L A A L A K H I L (INLKALAALAKHIL) [MP-12H]	23.86		
I N L K A L A A L A K I I L [MP-12I-Ac-NH2]		87.97% and 67.63% and 46.09%	
I N L K A L A A L A K I I L [MP-12I-Ac]		0%	
I N L K A L A A L A K I I L [MP-12I-NH2]		81.66% and 70.13% and 49.9%	
I N L K A L A A L A K I I L [MP-12I-OH]		0%	
I N L K A L A A L A K K C L (INLKALAALAKKCL) [MP-13C]	17.27		
I N L K A L A A L A K K F L (INLKALAALAKKFL) [MP-13F]	24.37		
I N L K A L A A L A K K L L (INLKALAALAKKLL) [MP-13L]	22.46		
I N L K A L A A L A K K M L (INLKALAALAKKML) [MP-13M]	64.54		
I N L K A L A A L A K K W L (INLKALAALAKKWL) [MP-13W]	22.76		
I N L K A L A A L A K L I L [MP-12L-Ac-NH2]		80.35% and 76.49% and 58.57%	
I N L K A L A A L A K L I L [MP-12L-Ac]		1.07%	
I N L K A L A A L A K L I L [MP-12L-NH2]		83.36% and 67.37% and 51.29%	
I N L K A L A A L A K L I L [MP-12L-OH]		21.36%	

Substance	MCD10: concentration of peptide necessary to induce degranulation of 10% of mast cells [1]	% Mast Cell Degranulation [1]	other results
I N L K A L A A L A K N I L (INLKALAALAKNIL) [MP-12N]	31.86		
I N L K A L A A L A K Q I L (INLKALAALAKQIL) [MP-12Q]	18.73		
I N L K A L A A L A K R I L (INLKALAALAKRIL) [MP-12R]	23.29		
I N L K A L A A L A K S I L (INLKALAALAKSIL) [MP-12S]	22.50		
I N L K A L A A L A K W I L [MP-12W-Ac]		38.76%	
I N L K A L A A L A K W I L [MP-12W-NH2]		79.87% and 85.74% and 80.05%	
I N L K A L A A L A K W I L [MP-12W-OH]		23.83%	
I N L K A W A A L A K K I L (INLKAWAALAKKIL) [MP-6W]	24.99		
INLKALAALAKAIL [MP-12A, I N L K A L A A L A K A I L]	8.88		EC50 [1]: 25.3 µM
INLKALAALAKALLGGGINLKALAALAKALL-NH2 [MP7-2XB]			% MC/9 Degranulation [1]: 40.49% and 56.90%
INLKALAALAKALLINLKALAALAKALL-NH2 [MP7-2X]			% MC/9 Degranulation [1]: 33.60% and 47.80%
INLKALAALAKALLSGGRGGINLKALAALAKALL-NH2 [MP7-2XA]			% MC/9 Degranulation [1]: 50.20% and 78.40%
INLKALAALAKCIL [MP-12C, I N L K A L A A L A K C I L]	5.33		EC50 [1]: 23.8 µM
INLKALAALAKFIL [MP-12F, I N L K A L A A L A K F I L]	4.39		EC50 [1]: 9.22 µM; Anti-WNV IgG titers in sera on day 28, versus antigen alone [2]: significantly greater; anti-WNV IgG titers, difference versus mice that received MP7 [2]: no significant difference
INLKALAALAKIIL [MP-12I, I N L K A L A A L A K I I L]	2.32		EC50 [1]: 12 µM; Anti-WNV IgG titers in sera on day 28, versus antigen alone [2]: significantly greater; anti-WNV IgG titers, difference versus mice that received MP7 [2]: no significant difference
INLKALAALAKLIL [MP-12L, I N L K A L A A L A K L I L]	2.30		EC50 [1]: 5.19 µM; Anti-WNV IgG titers in sera on day 28, versus antigen alone [2]: significantly greater; anti-WNV IgG titers, difference versus mice that received MP7 [2]: no significant difference
INLKALAALAKMIL [MP-12M, I N L K A L A A L A K M I L]	2.96		EC50 [1]: 11.3 µM
INLKALAALAKVIL [MP-12V, I N L K A L A A L A K V I L]	14.87		EC50 [1]: 41.2 µM
INLKALAALAKWIL [MP-12W, I N L K A L A A L A K W I L]	1.47		EC50 [1]: 4.71 µM; Anti-WNV IgG titers in sera on day 28, versus antigen alone [2]: significantly greater; anti-WNV IgG titers, difference versus mice that received MP7 [2]: no significant difference
INLKALAALAKYIL [MP-12Y, I N L K A L A A L A K Y I L]	4.09		EC50 [1]: 11.1 µM
WQWRWWWWWWRRWW-NH2 [Duke Mast C]			% MC/9 Degranulation [1]: 47.90%; Tukey's Multiple Comparison Test versus CT, Significant? P < 0.05? [3]: No; Tukey's Multiple Comparison Test versus Duke Mast F NH2, Significant? P < 0.05? [3]: No; Tukey's Multiple Comparison Test versus Duke Mast I NH2, Significant? P < 0.05? [3]: No; Tukey's Multiple Comparison Test versus rPA, Significant? P < 0.05? [3]: Yes; adjuvant activity: serum anti-rPA IgG titers compared to rPA alone [3]: statistically significant adjuvant activity
WQWRWWWWWWRWWW-NH2 [Duke Mast I]			% MC/9 Degranulation [1]: 30.50%; Tukey's Multiple Comparison Test versus CT, Significant? P < 0.05? [3]: No; Tukey's Multiple Comparison Test versus rPA, Significant? P < 0.05? [3]: Yes; adjuvant activity: serum anti-rPA IgG titers compared to rPA alone [3]: statistically significant adjuvant activity
WRWRWWWWWWRRWW-NH2 [Duke Mast F]			% MC/9 Degranulation [1]: 27.80% and 40.07%; Tukey's Multiple Comparison Test versus CT, Significant? P < 0.05? [3]: No; Tukey's Multiple Comparison Test versus Duke Mast I NH2, Significant? P < 0.05? [3]: No; Tukey's Multiple Comparison Test versus rPA, Significant? P < 0.05? [3]: Yes; adjuvant activity: serum anti-rPA IgG titers compared to rPA alone [3]: statistically significant adjuvant activity
